These compounds were tested on Adult houseflies (assay: Knock-down test on adult houseflies by spraying oil solution in a cubic chamber). Details: 0.7 ml of 0.00625% oil solution sprayed into 70 cm cubic chamber; 5 male and 5 female adult houseflies; counted up to 10 minutes after spraying.
Type: in vivo, housefly (Musca domestica)
Description: A solution of 0.00625 part of the present compound (1) in 10 parts of dichloromethane was mixed with 89.99375 parts of deodorized kerosene to obtain a 0.00625% oil solution.
Adult houseflies (5 males and 5 females) were left in a cubic chamber (70 cm at each side). Into the chamber, 0.7 ml of 0.00625% oil solution of the present compound (1) prepared above was sprayed with a spray gun at a pressure of 8.8×10^4 Pa from a small window on the side of the chamber. Then, up to 10 minutes after spraying, the number of knocked-down insects was counted with time. From the results, a time required for knocking down 90% of the tested insects (KT90) was calculated.
In addition, the same test was carried out that 5-benzyl-3-furylmethyl (1R)-cis-2,2-dimethyl-3-((E)-3-ethoxy-3-oxo-1-propenyl)cyclopropanecarboxylate represented by the formula:
[drawing 6] (hereinafter, referred to as the comparative compound (A)), which is the compound described in GB-A-1413491 as compound P19/2; and 3-phenylbenzyl (1R)-cis-2,2-dimethyl-3-((E)-3-ethoxy-2-fluoro-3-oxo-1-propenyl)cyclopropanecarboxylate represented by the formula:
[drawing 7] (hereinafter, referred to as the comparative compound (B)), which is the compound described in U.S. Pat. No. 4,489,093 as example 12 were used as comparative compounds (repeated twice).

| SMILES | KT90 (time required for knocking down 90% of the tested insects) |
| --- | --- |
| CCOC(=O)/C(F)=C\[C@H]1[C@@H](C(=O)OCc2coc(Cc3ccccc3)c2)C1(C)C [Present compound (1), 5-benzyl-3-furylmethyl (1R)-cis-2,2-dimethyl-3-((E)-3-ethoxy-2-fluoro-3-oxo-1-propenyl)cyclopropanecarboxylate] | 2.9 min |
| CCOC(=O)/C(F)=C\[C@H]1[C@@H](C(=O)OCc2cccc(-c3ccccc3)c2)C1(C)C [Comparative compound (B), 3-phenylbenzyl (1R)-cis-2,2-dimethyl-3-((E)-3-ethoxy-2-fluoro-3-oxo-1-propenyl)cyclopropanecarboxylate] | 8.9 min |
| CCOC(=O)/C=C/[C@H]1[C@@H](C(=O)OCc2coc(Cc3ccccc3)c2)C1(C)C [Comparative compound (A), 5-benzyl-3-furylmethyl (1R)-cis-2,2-dimethyl-3-((E)-3-ethoxy-3-oxo-1-propenyl)cyclopropanecarboxylate] | 8.0 min |
